One data set concerns the target hERG (Homo sapiens, UniProt Q12809). Nature of the data set: Patch clamp selectivity, hERG. Type of data set: cell-based. The conditions noted are these: hERG vs TRPA1. How it is done: (§1) Data for TRPA1 inhibition and the selectivity of TRPA1 inhibition was obtained by this method for the compound of Formula (Ia) and included in Table 1 and Table 2. All currents were recorded in whole-cell configuration using EPC-9 and EPC-10 amplifiers and Patchmaster software (HEKA). […] The standard pipette solution consisted of 140 mM CsAsp, 10 mM EGTA, 10 mM HEPES, 2.27 mM MgCl2, 1.91 mM CaCl2, 4 mM MgATP, and 0.1-0.3 mM Na2GTP, with pH adjusted to 7.2 with CsOH. In addition, a solution containing 145 mM CsCl, 10 mM HEPES, 10 mM EGTA and 1 mM MgCl2 (pH 7.2 adjusted with CsOH) can be used. The standard bath solution contained 150 mM NaCl, 10 mM HEPES, 10 mM glucose, 4.5 mM KCl, 1 mM EGTA, 3 mM MgCl2, with pH adjusted to 7.4 with NaOH. In some instances, 2 mM CaCl2 was added in place of EGTA and the concentration of MgCl2 was reduced to 1 mM.
(§2) Data were collected either by continuous recordings at −60 mV or by applying voltage ramps from a holding potential of 0 mV every 4 s. […] Inward and outward currents were analyzed from the ramps at −80 and 80 mV, respectively. […]
(§3) Solutions were switched using a gravity-fed continuous focal perfusion system. […] Temperatures were confirmed using a thermistor (Warner Instruments, TA-29), with temperatures at the recorded cell estimated to be within +/−2° C. of those reported. […]

For data set [1], the system named is serum biomarkers of hepatotoxicity. In words: Hepatotoxicity serum biomarker study in dogs, oral dose. Type of data set: in vivo, dog. The conditions noted are these: dogs, 50 mg/kg PO. On the procedure:
The compound of Formula (Ia) was orally dosed to […] at dose levels of 5, 15 or 50 mg/kg using 30% Sulfobutylether β-cyclodextrin as the vehicle for assessment of safety as measured via serum chemistry biomarkers of hepatotoxicity or bile duct injury FIG. 5A, showing measurements of alanine aminotranferease [ALT], aspartate aminotranferease [AST], alkaline phosphatase [ALP] and gamma-glutamyl transferase [GGT] in the dogs at each dose level (each bar represents a measurement from 1 dog in the study). […] For example, the ALT levels were elevated up to about 60-fold in male dogs and up to about 130-fold in female beagle dogs following a single PO dose of 50 mg/kg.

The subject of another data set is female rats. Nature of the data set: 7-day i.p. repeat dose screening toxicity study. Format: in vivo, rat. As to conditions: female rats, 50 mg/kg/day i.p. for 7 consecutive days. How it is done: The compound of Formula (Ia) was evaluated in a 7-day repeat dose screening toxicity study in female rats. In order to maximize systemic exposure, rats were administered compound of Formula (Ia) i.p. at 50 mg/kg/day for 7 consecutive days, to obtain the results shown in FIG. 6. Clinical chemistry parameters were evaluated on Days 3 and 8. Histopathology was performed on select organs including the liver, kidney, spleen, and lung.

The target in another data set is hNav1.2 (Homo sapiens, UniProt Q99250). Nature of the data set: Patch clamp selectivity, hNav1.2. Type of data set: cell-based. The conditions noted are these: hNav1.2 vs TRPA1. On the procedure: as §1, §2, §3
(In general: In patch-clamp work, channel activity is measured electrically.)

In the next data set the target is hTRPV4 (Homo sapiens, UniProt Q9HBA0). Nature of the data set: Patch clamp selectivity, hTRPV4 (block). Type of data set: cell-based. The conditions noted are these: hTRPV4 vs TRPA1. On the procedure:
as §1, §2, §3

The next data set has as its target hTRPM8 (Homo sapiens, UniProt Q7Z2W7). Nature of the data set: Patch clamp selectivity, hTRPM8. Type of data set: cell-based. The conditions noted are these: hTRPM8 vs TRPA1. How it is done:
as §1, §2, §3

The next data set addresses T1, hTRPC5 (Homo sapiens, UniProt Q9UL62).
T1 sequence (Q9UL62 1-973): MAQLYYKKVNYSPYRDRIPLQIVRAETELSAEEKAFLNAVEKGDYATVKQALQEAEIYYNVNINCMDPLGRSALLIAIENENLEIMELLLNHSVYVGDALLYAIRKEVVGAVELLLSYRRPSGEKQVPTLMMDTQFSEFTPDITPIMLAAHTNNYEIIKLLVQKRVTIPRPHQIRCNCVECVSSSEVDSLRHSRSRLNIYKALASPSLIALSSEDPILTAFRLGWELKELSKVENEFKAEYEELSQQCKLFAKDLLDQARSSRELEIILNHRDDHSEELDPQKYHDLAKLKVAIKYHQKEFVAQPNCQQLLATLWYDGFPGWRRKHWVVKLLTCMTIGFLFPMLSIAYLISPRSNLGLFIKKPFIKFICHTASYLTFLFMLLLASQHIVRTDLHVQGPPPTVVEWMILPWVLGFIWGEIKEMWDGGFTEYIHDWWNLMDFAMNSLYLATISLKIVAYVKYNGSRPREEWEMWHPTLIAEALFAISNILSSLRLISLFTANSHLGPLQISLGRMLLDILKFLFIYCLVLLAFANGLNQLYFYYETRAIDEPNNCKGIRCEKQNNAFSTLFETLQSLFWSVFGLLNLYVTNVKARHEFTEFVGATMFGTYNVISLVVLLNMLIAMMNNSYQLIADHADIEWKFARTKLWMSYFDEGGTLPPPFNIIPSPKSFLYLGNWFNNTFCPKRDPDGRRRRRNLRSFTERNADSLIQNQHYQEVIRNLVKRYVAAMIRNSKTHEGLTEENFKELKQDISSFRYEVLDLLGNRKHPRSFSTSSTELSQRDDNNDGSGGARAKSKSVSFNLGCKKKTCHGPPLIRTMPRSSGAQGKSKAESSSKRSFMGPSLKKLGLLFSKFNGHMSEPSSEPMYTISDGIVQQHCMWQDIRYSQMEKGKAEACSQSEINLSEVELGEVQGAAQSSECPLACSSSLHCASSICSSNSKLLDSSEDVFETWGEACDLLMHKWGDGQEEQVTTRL
Nature of the data set: Patch clamp selectivity, hTRPC5. Format: cell-based. As to conditions: hTRPC5 vs TRPA1. On the procedure:
as §1, §2, §3

Entries after “also recorded” stand apart in the source; their conditions may differ.

Chain of hTRPV4 (Q9HBA0 whole entry): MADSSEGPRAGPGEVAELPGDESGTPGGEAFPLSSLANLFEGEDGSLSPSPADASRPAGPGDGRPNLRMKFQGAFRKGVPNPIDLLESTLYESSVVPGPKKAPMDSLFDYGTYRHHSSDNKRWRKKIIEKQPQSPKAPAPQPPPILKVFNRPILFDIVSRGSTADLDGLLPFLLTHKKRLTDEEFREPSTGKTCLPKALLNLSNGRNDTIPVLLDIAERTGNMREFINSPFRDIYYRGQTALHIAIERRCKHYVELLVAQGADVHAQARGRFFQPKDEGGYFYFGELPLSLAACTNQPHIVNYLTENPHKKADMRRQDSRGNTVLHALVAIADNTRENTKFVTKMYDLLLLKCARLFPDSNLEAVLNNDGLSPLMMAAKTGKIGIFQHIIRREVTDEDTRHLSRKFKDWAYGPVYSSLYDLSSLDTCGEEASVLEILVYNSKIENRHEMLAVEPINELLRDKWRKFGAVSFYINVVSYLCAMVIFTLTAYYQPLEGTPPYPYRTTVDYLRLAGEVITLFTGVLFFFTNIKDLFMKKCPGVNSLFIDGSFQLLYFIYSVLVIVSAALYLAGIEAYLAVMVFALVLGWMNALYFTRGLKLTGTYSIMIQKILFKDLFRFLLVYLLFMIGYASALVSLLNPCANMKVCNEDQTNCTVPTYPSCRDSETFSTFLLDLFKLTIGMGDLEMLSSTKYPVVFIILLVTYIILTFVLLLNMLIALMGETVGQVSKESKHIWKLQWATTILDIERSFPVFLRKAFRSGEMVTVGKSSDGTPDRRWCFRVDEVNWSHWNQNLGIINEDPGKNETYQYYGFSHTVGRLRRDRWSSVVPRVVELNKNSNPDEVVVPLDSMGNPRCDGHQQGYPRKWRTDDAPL
Chain of hERG (Q12809 whole entry): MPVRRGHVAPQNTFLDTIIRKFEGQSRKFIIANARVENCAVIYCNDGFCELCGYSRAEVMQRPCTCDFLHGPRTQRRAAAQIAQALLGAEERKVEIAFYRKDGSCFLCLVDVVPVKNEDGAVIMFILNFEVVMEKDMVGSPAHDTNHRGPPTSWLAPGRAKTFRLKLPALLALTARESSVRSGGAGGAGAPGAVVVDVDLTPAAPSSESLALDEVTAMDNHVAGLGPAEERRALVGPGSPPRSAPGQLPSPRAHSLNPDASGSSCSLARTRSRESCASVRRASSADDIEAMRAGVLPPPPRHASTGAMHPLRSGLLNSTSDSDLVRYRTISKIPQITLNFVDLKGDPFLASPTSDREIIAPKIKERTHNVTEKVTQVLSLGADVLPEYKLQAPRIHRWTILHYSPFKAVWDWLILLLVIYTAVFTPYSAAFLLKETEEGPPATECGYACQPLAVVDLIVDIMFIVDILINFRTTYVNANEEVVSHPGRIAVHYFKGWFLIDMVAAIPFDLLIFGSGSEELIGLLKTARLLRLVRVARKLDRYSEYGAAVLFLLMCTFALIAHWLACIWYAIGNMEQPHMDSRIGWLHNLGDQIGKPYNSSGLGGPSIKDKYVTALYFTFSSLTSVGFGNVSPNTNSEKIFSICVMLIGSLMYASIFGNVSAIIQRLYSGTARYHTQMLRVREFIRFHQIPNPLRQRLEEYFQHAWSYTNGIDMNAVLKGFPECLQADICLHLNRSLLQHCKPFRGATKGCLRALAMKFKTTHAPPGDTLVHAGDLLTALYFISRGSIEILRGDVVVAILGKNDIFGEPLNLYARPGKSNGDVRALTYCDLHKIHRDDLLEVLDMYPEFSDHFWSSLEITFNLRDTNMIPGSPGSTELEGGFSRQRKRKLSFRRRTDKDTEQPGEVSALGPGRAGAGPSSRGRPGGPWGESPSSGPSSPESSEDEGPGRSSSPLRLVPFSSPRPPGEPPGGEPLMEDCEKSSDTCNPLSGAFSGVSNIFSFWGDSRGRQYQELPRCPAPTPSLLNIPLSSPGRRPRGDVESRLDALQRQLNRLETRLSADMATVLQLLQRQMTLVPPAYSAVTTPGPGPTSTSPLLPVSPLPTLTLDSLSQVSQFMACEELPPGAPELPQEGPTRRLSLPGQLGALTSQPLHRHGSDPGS
Chain of hNav1.2 (Q99250 whole entry): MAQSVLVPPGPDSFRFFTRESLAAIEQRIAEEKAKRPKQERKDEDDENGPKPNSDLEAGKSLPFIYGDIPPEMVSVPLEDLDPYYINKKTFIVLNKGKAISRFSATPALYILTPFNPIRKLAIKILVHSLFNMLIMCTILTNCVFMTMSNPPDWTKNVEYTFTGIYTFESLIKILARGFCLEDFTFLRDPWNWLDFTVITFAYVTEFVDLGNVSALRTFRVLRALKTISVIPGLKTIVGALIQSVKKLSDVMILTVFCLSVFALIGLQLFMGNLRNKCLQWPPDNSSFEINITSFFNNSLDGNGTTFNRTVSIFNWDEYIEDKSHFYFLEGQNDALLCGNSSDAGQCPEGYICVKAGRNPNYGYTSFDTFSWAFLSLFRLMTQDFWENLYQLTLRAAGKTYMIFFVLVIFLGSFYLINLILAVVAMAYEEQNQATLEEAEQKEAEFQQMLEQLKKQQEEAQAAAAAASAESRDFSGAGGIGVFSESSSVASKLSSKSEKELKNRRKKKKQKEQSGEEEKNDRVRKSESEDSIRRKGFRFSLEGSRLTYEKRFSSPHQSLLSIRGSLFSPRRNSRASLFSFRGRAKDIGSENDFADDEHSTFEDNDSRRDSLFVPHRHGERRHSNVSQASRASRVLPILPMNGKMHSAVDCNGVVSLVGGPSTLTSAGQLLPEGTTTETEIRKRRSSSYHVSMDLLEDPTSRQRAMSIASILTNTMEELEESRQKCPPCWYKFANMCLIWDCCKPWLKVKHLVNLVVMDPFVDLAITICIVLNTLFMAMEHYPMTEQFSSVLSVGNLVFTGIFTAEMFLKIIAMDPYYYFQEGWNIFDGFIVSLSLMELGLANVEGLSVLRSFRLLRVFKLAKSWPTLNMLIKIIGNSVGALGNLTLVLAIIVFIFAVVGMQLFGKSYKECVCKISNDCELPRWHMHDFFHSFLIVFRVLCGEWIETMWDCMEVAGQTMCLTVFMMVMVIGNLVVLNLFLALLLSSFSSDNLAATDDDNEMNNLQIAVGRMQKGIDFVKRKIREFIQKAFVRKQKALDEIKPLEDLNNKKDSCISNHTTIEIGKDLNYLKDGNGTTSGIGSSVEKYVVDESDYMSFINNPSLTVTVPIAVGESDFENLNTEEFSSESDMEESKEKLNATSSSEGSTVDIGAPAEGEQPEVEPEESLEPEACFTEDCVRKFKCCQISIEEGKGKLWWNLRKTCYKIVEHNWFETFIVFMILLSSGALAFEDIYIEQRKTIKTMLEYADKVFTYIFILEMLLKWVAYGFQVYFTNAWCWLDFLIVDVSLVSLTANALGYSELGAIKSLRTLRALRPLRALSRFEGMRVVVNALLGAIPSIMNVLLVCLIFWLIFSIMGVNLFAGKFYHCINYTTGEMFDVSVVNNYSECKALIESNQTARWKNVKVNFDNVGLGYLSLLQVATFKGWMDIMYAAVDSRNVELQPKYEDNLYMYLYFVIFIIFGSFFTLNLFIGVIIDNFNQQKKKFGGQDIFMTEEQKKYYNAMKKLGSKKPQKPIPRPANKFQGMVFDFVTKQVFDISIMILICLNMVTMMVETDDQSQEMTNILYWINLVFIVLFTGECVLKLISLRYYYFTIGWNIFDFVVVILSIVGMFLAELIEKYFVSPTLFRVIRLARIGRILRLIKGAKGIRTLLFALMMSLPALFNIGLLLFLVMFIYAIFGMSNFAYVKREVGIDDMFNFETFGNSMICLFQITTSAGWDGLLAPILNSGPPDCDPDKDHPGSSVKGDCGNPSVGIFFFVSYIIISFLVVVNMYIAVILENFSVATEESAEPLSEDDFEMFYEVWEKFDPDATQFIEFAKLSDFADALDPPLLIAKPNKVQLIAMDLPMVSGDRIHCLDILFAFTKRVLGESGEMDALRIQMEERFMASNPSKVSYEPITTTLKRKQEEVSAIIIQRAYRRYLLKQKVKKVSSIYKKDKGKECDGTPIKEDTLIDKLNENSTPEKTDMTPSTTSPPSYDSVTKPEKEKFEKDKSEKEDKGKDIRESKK
Chain of hTRPM8 (Q7Z2W7 whole entry): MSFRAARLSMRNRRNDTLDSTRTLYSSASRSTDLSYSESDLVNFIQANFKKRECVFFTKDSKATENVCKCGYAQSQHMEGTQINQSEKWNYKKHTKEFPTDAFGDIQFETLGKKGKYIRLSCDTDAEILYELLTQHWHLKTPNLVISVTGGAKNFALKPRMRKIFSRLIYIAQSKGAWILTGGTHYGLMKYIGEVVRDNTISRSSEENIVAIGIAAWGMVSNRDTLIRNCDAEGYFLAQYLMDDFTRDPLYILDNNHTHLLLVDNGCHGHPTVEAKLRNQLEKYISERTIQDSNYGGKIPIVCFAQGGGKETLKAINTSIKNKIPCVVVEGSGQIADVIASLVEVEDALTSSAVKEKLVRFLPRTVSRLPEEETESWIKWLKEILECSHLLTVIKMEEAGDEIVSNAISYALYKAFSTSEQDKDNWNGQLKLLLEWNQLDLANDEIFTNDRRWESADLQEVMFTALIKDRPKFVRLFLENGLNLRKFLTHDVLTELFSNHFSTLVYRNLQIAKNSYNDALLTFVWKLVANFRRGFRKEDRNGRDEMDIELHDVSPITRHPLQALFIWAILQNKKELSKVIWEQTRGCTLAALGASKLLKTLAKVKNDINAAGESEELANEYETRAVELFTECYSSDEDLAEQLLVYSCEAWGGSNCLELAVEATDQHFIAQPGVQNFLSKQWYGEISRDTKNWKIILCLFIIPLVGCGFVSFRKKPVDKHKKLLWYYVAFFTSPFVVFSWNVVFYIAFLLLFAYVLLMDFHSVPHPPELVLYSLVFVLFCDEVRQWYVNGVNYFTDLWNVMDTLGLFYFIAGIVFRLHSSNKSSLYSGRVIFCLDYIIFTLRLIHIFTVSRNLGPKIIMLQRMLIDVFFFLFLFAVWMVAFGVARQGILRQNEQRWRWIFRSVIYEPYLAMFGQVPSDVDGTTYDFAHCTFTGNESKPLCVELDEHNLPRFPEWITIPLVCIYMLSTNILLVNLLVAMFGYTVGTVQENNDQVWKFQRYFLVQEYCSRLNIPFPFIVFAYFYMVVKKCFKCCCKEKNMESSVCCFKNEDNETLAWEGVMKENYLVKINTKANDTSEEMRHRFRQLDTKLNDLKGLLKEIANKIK

With `C[C@H]1CCCN1c1ncc(-c2cccc(NC(=O)Cn3cnc4c3c(=O)n(C)c(=O)n4C)n2)cn1` [Formula (Ia)], the “Fold Selectivity Compared to TRPA1” value on hERG is recorded as over 100 Fold; at hNav1.2, over 100 Fold; at hTRPV4, about 170 Fold; at hTRPM8, about 200 Fold; on hTRPC5 it was over 100 Fold. For the same compound, the “serum biomarkers of hepatotoxicity (ALT, AST, ALP, GGT)” value in data set [1] was “did not elevate serum biomarkers of hepatotoxicity or acute phase response”. The “histopathology of liver, kidney, spleen, lung” value with female rats (50 mg/kg/day) is on record as “No histopathological findings in the liver, kidney, spleen, or lung; also recorded: no adverse effects”. The “clinical signs, body weight, clinical chemistry parameters” value with female rats (Days 3 and 8) was “no adverse clinical signs, changes in body weight, or changes in clinical chemistry parameters were noted”.

These data come from patent US9193729B2, “Inhibiting transient receptor potential ion channel TRPA1” (Cubist Pharmaceuticals, Inc., priority 2011, dated 2015).
